In PubChem BioAssay (NCI):
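Protocol summary: plate cells (96-well), add compound at 5 concentrations, incubate 48 h, interpolate endpoints linearly. TGI denotes the concentration required for complete inhibition of growth.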

Test system: HOP-18 NSCLC
Experiment: NCI-60 cell line screen, 48 h

## CCN(CC)CCCNc1ccc2nnn3c4ccc(O)cc4c(=O)c1c23
  TGI: 29.8 µM

## O=[As](O)(O)c1cc(N=Nc2ccc(-c3ccc(N=Nc4cc([As](=O)(O)O)c(O)cc4O)cc3)cc2)c(O)cc1O
  TGI: > 100 µM
